Laboratory results reported in patent publication US20200237695A1, “LEVOTHYROXINE LIQUID FORMULATIONS” (Hikma Pharmaceuticals USA Inc., priority 2019, published 2020).
Values after ≈ are worked out from the molar mass of the structure shown.

Assay: Levothyroxine solubilization in aqueous amino acid solutions
Format: physicochemical
Conditions: aqueous buffer
Procedure: The formulations can further include one or more pH adjusters, for example, a single pH adjuster. The pH adjuster can be an amino acid, which can be the sole amino acid and pH adjuster in the formulation. The pH adjuster serves to aid in adjusting the pH of the aqueous formulation and selectively the solubilization of levothyroxine or any salt thereof in the liquid formulation. In one or more embodiments, the pH adjuster is arginine. In water, a concentration of arginine from about 1 mg/mL to about 20 mg/mL adjust the pH of water to about 10.3 to about 11.

solubility (aqueous arginine solution, arginine in aqueous solutions): > 500 µg/mL
solubility (aqueous aspartic acid solution, aspartic acid 1 mg/mL in water): 450 µg/mL (≈ 579 µM)
solubility (aqueous aspartic acid solution, aspartic acid 4 mg/mL in water): 100 µg/mL (≈ 129 µM)
Structure (SMILES): N[C@@H](Cc1cc(I)c(Oc2cc(I)c(O)c(I)c2)c(I)c1)C(=O)O [levothyroxine, 4-(4-hydroxy-3,5-diiodophenoxy)-3,5-diiodo-L-phenylalanine]
